Results from article PMC12621191, “Increasing the Chemical Space of L-SIGN Specific Glycomimetics” (Journal of Medicinal Chemistry, 2025).

Key:
[1] = target: T1, L-SIGN (Homo sapiens, UniProt Q9H2X3); assay: SPR binding inhibition (competition) assay on immobilized SARS-CoV-2 Spike surface, L-SIGN; details: for Selectivity = (IC50 [DC-SIGN]/IC50 [L-SIGN]): L-SIGN vs DC-SIGN, SPR inhibition on Spike surface; for IC50 / L-SIGN IC50: SPR, Spike functionalized chip, L-SIGN 20 μM coinjected with ligand, pH 8, duplicates
T1 construct: L-SIGN 3G-ECD (amino acids 78 to 399); made in house
T1 sequence (Q9H2X3 78-399): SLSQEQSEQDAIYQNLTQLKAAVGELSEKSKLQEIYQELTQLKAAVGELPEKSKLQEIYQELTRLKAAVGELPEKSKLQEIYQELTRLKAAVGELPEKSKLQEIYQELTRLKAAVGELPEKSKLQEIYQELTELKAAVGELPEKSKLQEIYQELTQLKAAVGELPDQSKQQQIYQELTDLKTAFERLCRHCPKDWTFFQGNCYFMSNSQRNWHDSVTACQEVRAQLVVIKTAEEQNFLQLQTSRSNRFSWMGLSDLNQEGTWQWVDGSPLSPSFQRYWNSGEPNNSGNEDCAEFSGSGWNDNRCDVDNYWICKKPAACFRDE

[2] = target: T2, DC-SIGN (Homo sapiens, UniProt Q9NNX6); assay: SPR binding inhibition (competition) assay on immobilized SARS-CoV-2 Spike surface, DC-SIGN; details: Spike functionalized chip, DC-SIGN 20 μM coinjected with ligand, pH 8, duplicates
T2 construct: DC-SIGN 3G-ECD (amino acids 66 to 404); made in house
T2 sequence (Q9NNX6 66-404): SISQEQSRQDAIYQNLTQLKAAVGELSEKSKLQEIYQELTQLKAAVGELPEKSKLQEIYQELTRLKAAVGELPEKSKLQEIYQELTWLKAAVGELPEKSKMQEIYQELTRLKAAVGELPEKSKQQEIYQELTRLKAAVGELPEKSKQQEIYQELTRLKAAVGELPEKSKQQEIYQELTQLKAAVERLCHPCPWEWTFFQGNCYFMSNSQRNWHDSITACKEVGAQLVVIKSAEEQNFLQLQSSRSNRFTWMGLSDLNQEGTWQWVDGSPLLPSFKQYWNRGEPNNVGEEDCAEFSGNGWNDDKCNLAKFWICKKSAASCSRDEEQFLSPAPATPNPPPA

SMILES | Selectivity = (IC50 [DC-SIGN]/IC50 [L-SIGN]) [1] | IC50 [1] | IC50 [2] | Selectivity = (IC50 [DC-SIGN]/IC50 [L-SIGN]) ([1]; listed as 51 (Man79)) | L-SIGN IC50 [1]
OC[C@H]1O[C@H](OCCCl)[C@@H](n2cc(CNc3ncc[nH]3)nn2)[C@@H](O)[C@@H]1O [compound 9, 2-Chloroethyl 2-Deoxy-2-(4-(((1H-imidazol-2-yl)amino)methyl)-1,2,3-triazol-1-yl)-α-D-mannopyranoside] | 50 | 18 ± 0.1 µM | 895 ± 8 µM |  | 
O=c1ccnc(NCc2cn([C@@H]3[C@@H](OCCCl)O[C@H](CO)[C@@H](O)[C@@H]3O)nn2)[nH]1 [compound 6, 2-Chloroethyl 2-Deoxy-2-(4-(((pyrimidin-4(3H)-onyl)amino)methyl)-1,2,3-triazol-1-yl)-α-D-manno Pyranoside] | 25 | 30 ± 0.2 µM | 750 ± 29 µM |  | 
O=c1nccc(NCc2cn([C@@H]3[C@@H](OCCCl)O[C@H](CO)[C@@H](O)[C@@H]3O)nn2)[nH]1 [compound 7, 2-Chloroethyl 2-Deoxy-2-(4-(((pyrimidin-2(1H)-onyl)amino)methyl)-1,2,3-triazol-1-yl)-α-D-manno Pyranoside] | 5 | 130 ± 1 µM | 692 ± 8 µM |  | 
NCc1cn([C@@H]2[C@@H](OCCCl)O[C@H](CO)[C@@H](O)[C@@H]2O)nn1 [compound 51, reference compound] |  | ~300 µM | ~300 µM | totally unselective | 
OC[C@H]1O[C@H](OCCCl)[C@@H](n2cc(CNc3ccccn3)nn2)[C@@H](O)[C@@H]1O [compound 8, 2-Chloroethyl 2-Deoxy-2-((4-((pyridin-2-ylamino)methyl))-1,2,3-triazol-1-yl)-α-D-mannopyranoside] | 8 | 101 ± 0.2 µM | 822 ± 16 µM |  | 
OC[C@H]1O[C@H](OCCCl)[C@@H](n2cc(CNc3nc4ccccc4[nH]3)nn2)[C@@H](O)[C@@H]1O [compound 10, 2-Chloroethyl 2-Deoxy-2-(4-(((1H-benzo[d]imidazol-2-yl)amino)methyl)-1,2,3-triazol-1-yl)-α-D-mannopyranoside] | 16 | 48 ± 0.4 µM | 779 ± 24 µM |  | 
OC[C@H]1O[C@H](OCCCl)[C@@H](n2cc(CNC3=NCCCN3)nn2)[C@@H](O)[C@@H]1O [compound 5, 2-Chloroethyl 2-Deoxy-2-(4-(((1,4,5,6-tetrahydropyrimidin-2-yl)amino)methyl)-1,2,3-triazol-1-yl)-α-D-mannopyranoside] | 94 | 12 ± 0.01 µM | 1130 ± 55 µM |  | 
COc1nc(NCc2cn([C@@H]3[C@@H](OCCCl)O[C@H](CO)[C@@H](O)[C@@H]3O)nn2)nc(OC)n1 [compound 3, 2-Chloroethyl 2-Deoxy-2-(4-(((4,6-dimethoxy-1,3,5-triazin-2-yl)amino)methyl)-1,2,3-triazol-1-yl)-α-D-mannopyranoside] |  | 453 ± 0.4 µM | 555 ± 14 µM |  | Low affinity
OC[C@H]1O[C@H](OCCCl)[C@@H](n2cc(CNc3ncccn3)nn2)[C@@H](O)[C@@H]1O [compound 2] |  | 602 ± 0.5 µM | 798 ± 16 µM |  | Low affinity
COc1ccc2[nH]c(NCc3cn([C@@H]4[C@@H](OCCCl)O[C@H](CO)[C@@H](O)[C@@H]4O)nn3)nc2c1 [compound 11, 2-Chloroethyl 2-Deoxy-2-(4-(((5-methoxy-1H-benzo[d]imidazol-2-yl)amino)methyl)-1,2,3-triazol-1-yl)-α-D-mannopyranoside] | 12 | 51.6 ± 0.7 µM | 602 ± 12 µM |  | 
OC[C@H]1O[C@H](OCCCl)[C@@H](n2cc(CNC3=NCCN3)nn2)[C@@H](O)[C@@H]1O [compound 4] | 76 | 15 ± 0.01 µM | 1130 ± 26 µM |  | 
N=C(N)NCc1cn([C@@H]2[C@@H](OCCCl)O[C@H](CO)[C@@H](O)[C@@H]2O)nn1 [Man84, reference compound] | 61 | 19 ± 0.02 µM | 1160 ± 25 µM |  | 
